{"source": "patent US5457051A", "about": "“Enantioselective hydrolysis of ketoprofen esters by beauveria bassiana and enzymes derived therefrom” (Sepracor, Inc., priority 1993, dated 1995)", "key": {"[1]": {"system": "Beauveria ester hydrolase", "test": "Km from the activity of the preparation at different concentrations of substrate", "assay_type": "biochemical, Beauveria bassiana", "conditions": "partially purified enzyme preparation"}, "[2]": {"system": "Beauveria ester hydrolase", "test": "Sensitivity of the enzyme to PMSF", "assay_type": "biochemical, Beauveria bassiana", "text": "(§1) Although the enzyme hydrolyzes the water-soluble choline ester, it appears that the enzyme might be a lipase."}, "[3]": {"system": "Beauveria ester hydrolase", "test": "Substrate specificity of the enzyme preparation (Table 9; lipase and protease substrates)", "assay_type": "biochemical, Beauveria bassiana", "conditions": "compound used as substrate", "procedure": "A one-mL (final volume) reaction mixture contained ketoprofen choline ester (6 mg), NaPi buffer (200 mM, pH 6.5), and 150 mg of whole cells or pellet, or 300 μL cell crude extract. The reaction was carried out at 30° C. in a shaker with a reciprocal speed of 169 rpm. Routine assays of the enzyme were performed by using p-nitrophenyl ketoprofen as a substrate at 30° C.\nas §1"}, "[4]": {"system": "Beauveria ester hydrolase", "conditions": "at 40 mM acid; partially purified enzyme preparation"}}, "note": "Starred links: 1 amine or outer side, 2 acyl side, 3 side chain; linkers in the order of their positions; H or OH if unused. Residues, ends and D or L forms follow the SMILES beside them. *: point of attachment. pNA = O=[N+]([O-])c1ccc(N*)cc1; Suc = O=C(CCC(=O)[*:2])[*:1]"}
{"molecule": "CC(C(=O)OCC[N+](C)(C)C)c1cccc(C(=O)c2ccccc2)c1", "note": "(racemic) [ketoprofen choline ester]", "values": [{"measurement": "estimated km", "setting": "[1]", "result": 4.96, "unit": "mM"}]}
{"molecule": "O=S(=O)(F)Cc1ccccc1", "note": "[PMSF, phenylmethylsulfonylfluoride]", "values": [{"measurement": "sensitivity of the enzyme to the inhibitor (in words)", "setting": "[2]", "result": "sensitive"}]}
{"molecule": "C[C@H](NC(=O)CCC(=O)O)C(=O)N[C@@H](C)C(=O)N1CCC[C@H]1C(=O)N[C@@H](Cc1ccccc1)C(=O)Nc1ccc([N+](=O)[O-])cc1", "note": "[N-succinyl-ala-ala-pro-phe-p-nitroaniline] (Suc-AAPF-pNA)", "values": [{"measurement": "hydrolysis of the substance by the enzyme preparation (in words)", "setting": "[3]", "result": "does not hydrolyze"}]}
{"molecule": "CC(=O)Oc1ccc([N+](=O)[O-])cc1", "note": "[p-nitrophenyl acetate]", "values": [{"measurement": "Enzymic activity (n mole substrate hydrolyzed/min/mL enzyme)", "setting": "[3]", "result": "215 n mole substrate hydrolyzed/mi"}]}
{"molecule": "C[C@@H](C(=O)O)c1cccc(C(=O)c2ccccc2)c1", "note": "[acid product, R-ketoprofen]", "values": [{"measurement": "inhibition of the enzyme by reaction product", "setting": "[4]", "result": "approximately 45%"}]}
{"molecule": "CCCCCCCCCCCCCCCC(=O)Oc1ccc([N+](=O)[O-])cc1", "note": "[p-nitrophenyl palmitate]", "values": [{"measurement": "Enzymic activity (n mole substrate hydrolyzed/min/mL enzyme)", "setting": "[3]", "result": "7496 n mole substrate hydrolyzed/mi"}]}
